Measurements from ChEMBL document CHEMBL1156471, “Targeting host cell furin proprotein convertases as a therapeutic strategy against bacterial toxins and viral pathogens” (J Biol Chem, 2007).
Non-standard residues stand in square brackets, D forms with d. Residues, ends and D or L forms follow the SMILES beside them. Sar = CNCC(=O)O

molecular target: Furin (Homo sapiens, UniProt P09958)
Sequence (P09958 whole entry): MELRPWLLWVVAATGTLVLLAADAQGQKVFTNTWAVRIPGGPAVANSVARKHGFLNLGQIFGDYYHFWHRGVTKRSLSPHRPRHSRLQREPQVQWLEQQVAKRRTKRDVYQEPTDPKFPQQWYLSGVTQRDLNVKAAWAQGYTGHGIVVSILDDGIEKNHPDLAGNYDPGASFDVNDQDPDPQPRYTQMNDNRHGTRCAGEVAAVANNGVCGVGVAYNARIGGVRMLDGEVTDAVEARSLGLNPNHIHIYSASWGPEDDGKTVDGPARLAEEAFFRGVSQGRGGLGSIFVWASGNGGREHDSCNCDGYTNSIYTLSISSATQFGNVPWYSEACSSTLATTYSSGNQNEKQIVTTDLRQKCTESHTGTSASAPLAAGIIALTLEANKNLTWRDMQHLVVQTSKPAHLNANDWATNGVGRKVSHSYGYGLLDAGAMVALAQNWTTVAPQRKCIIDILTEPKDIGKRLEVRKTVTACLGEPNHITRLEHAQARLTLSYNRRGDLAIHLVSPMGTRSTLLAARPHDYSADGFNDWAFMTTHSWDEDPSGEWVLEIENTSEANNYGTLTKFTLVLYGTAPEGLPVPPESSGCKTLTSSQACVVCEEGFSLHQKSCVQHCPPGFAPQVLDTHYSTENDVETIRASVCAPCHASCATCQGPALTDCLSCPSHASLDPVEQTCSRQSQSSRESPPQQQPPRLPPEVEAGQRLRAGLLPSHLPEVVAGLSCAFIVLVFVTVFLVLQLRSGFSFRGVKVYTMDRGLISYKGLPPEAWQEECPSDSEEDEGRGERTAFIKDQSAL

SMILES | Ki
C[C@@H](O)[C@H](N)C(=O)N1CCC[C@H]1C(=O)N[C@@H](CCCNC(=N)N)C(=O)NCCCCCC(=O)N[C@@H](CCCNC(=N)N)C(=O)N[C@@H](CCCNC(=N)N)C(=O)N[C@@H](CCCNC(=N)N)C(=O)N[C@@H](CCCCN)C(=O)N[C@@H](CCCCN)C(=O)N[C@@H](CCCNC(=N)N)C(=O)NCC(=O)O | > 100 nM
C[C@@H](O)[C@H](N)C(=O)N1CCC[C@H]1C(=O)N[C@@H](CCCNC(=N)N)C(=O)NCCC(=O)N[C@@H](CCCNC(=N)N)C(=O)N[C@@H](CCCNC(=N)N)C(=O)N[C@@H](CCCNC(=N)N)C(=O)N[C@@H](CCCCN)C(=O)N[C@@H](CCCCN)C(=O)N[C@@H](CCCNC(=N)N)C(=O)NCC(=O)O | > 100 nM
C[C@H](N)C(=O)N[C@@H](C)C(=O)N[C@@H](C)C(=O)N[C@@H](CCC(=O)O)C(=O)N[C@@H](CCCNC(=N)N)C(=O)N[C@@H](CCCNC(=N)N)C(=O)N[C@@H](CCCNC(=N)N)C(=O)N[C@@H](CCCCN)C(=O)N[C@@H](CCCCN)C(=O)N[C@@H](CCCNC(=N)N)C(=O)N(C)CC(=O)O (H-AAAERRRKKR[Sar]-OH) | > 100 nM
C[C@H](N)C(=O)N[C@@H](C)C(=O)N[C@@H](CCCN=C(N)N)C(=O)N[C@@H](CCC(=O)O)C(=O)N[C@@H](CCCN=C(N)N)C(=O)N[C@@H](CCCN=C(N)N)C(=O)N[C@@H](CCCN=C(N)N)C(=O)N[C@@H](CCCCN)C(=O)N[C@@H](CCCCN)C(=O)N[C@@H](CCCN=C(N)N)C(=O)N(C)CC(=O)O (H-AARERRRKKR[Sar]-OH) | > 100 nM
C[C@H](N)C(=O)N1CCC[C@H]1C(=O)N[C@@H](CCCNC(=N)N)C(=O)N[C@@H](CCC(=O)O)C(=O)N[C@@H](CCCNC(=N)N)C(=O)N[C@@H](CCCNC(=N)N)C(=O)N[C@@H](CCCNC(=N)N)C(=O)N[C@@H](CCCCN)C(=O)N[C@@H](CCCCN)C(=O)N[C@@H](CCCNC(=N)N)C(=O)N(C)CC(=O)O (H-APRERRRKKR[Sar]-OH) | > 100 nM
C[C@H](NC(=O)[C@H](C)NC(=O)[C@@H](N)[C@@H](C)O)C(=O)N[C@@H](CCC(=O)O)C(=O)N[C@@H](CCCNC(=N)N)C(=O)N[C@@H](CCCNC(=N)N)C(=O)N[C@@H](CCCNC(=N)N)C(=O)N[C@@H](CCCCN)C(=O)N[C@@H](CCCCN)C(=O)N[C@@H](CCCNC(=N)N)C(=O)N(C)CC(=O)O (H-TAAERRRKKR[Sar]-OH) | > 100 nM
C[C@H](NC(=O)[C@@H](N)[C@@H](C)O)C(=O)N[C@@H](CCCNC(=N)N)C(=O)N[C@@H](CCC(=O)O)C(=O)N[C@@H](CCCNC(=N)N)C(=O)N[C@@H](CCCNC(=N)N)C(=O)N[C@@H](CCCNC(=N)N)C(=O)N[C@@H](CCCCN)C(=O)N[C@@H](CCCCN)C(=O)N[C@@H](CCCNC(=N)N)C(=O)N(C)CC(=O)O (H-TARERRRKKR[Sar]-OH) | > 100 nM
C[C@H](NC(=O)[C@H](C)NC(=O)[C@@H]1CCCN1C(=O)[C@@H](N)[C@@H](C)O)C(=O)N[C@@H](C)C(=O)N[C@@H](CCCNC(=N)N)C(=O)N[C@@H](CCCNC(=N)N)C(=O)N[C@@H](CCCCN)C(=O)N[C@@H](CCCCN)C(=O)N[C@@H](CCCNC(=N)N)C(=O)N(C)CC(=O)O (H-TPAAARRKKR[Sar]-OH) | > 100 nM
C[C@H](NC(=O)[C@H](C)NC(=O)[C@@H]1CCCN1C(=O)[C@@H](N)[C@@H](C)O)C(=O)N[C@@H](CCCN=C(N)N)C(=O)N[C@@H](CCCN=C(N)N)C(=O)N[C@@H](CCCN=C(N)N)C(=O)N[C@@H](CCCCN)C(=O)N[C@@H](CCCCN)C(=O)N[C@@H](CCCN=C(N)N)C(=O)N(C)CC(=O)O (H-TPAARRRKKR[Sar]-OH) | > 100 nM
C[C@H](NC(=O)[C@@H]1CCCN1C(=O)[C@@H](N)[C@@H](C)O)C(=O)N[C@@H](CCC(=O)O)C(=O)N[C@@H](CCCNC(=N)N)C(=O)N[C@@H](CCCNC(=N)N)C(=O)N[C@@H](CCCNC(=N)N)C(=O)N[C@@H](CCCCN)C(=O)N[C@@H](CCCCN)C(=O)N[C@@H](CCCNC(=N)N)C(=O)N(C)CC(=O)O (H-TPAERRRKKR[Sar]-OH) | > 100 nM
